According to PubChem BioAssay (NCI):
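Five compound concentrations were applied to cells in 96-well plates for 48 hours; endpoints were derived by simple linear interpolation of the resulting dose-response curve. The concentration for 50% growth inhibition is given as GI50. TGI is the concentration that stops growth completely.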

Key:
Experiment in all cases: NCI anticancer screen, dose series, 48 h
[1] = tested on: 786-0 renal
[2] = tested on: A549 NSCLC
[3] = tested on: ACHN renal
[4] = tested on: BT-549 breast
[5] = tested on: CAKI-1 renal
[6] = tested on: CCRF-CEM leukemia
[7] = tested on: COLO 205 colon
[8] = tested on: DU-145 prostate
[9] = tested on: EKVX NSCLC
[10] = tested on: HCC-2998 colon
[11] = tested on: HCT-116 colon
[12] = tested on: HCT-15 colon
[13] = tested on: HL-60(TB) leukemia
[14] = tested on: HOP-62 NSCLC
[15] = tested on: HOP-92 NSCLC
[16] = tested on: HS 578T breast
[17] = tested on: HT29 colon
[18] = tested on: IGROV1 ovarian
[19] = tested on: K-562 leukemia
[20] = tested on: KM12 colon
[21] = tested on: LOX IMVI melanoma
[22] = tested on: M14 melanoma
[23] = tested on: MALME-3M melanoma
[24] = tested on: MCF7 breast
[25] = tested on: MDA-MB-231 breast
[26] = tested on: MDA-MB-435
[27] = tested on: MOLT-4 leukemia
[28] = tested on: NCI-H226 lung
[29] = tested on: NCI-H23 lung
[30] = tested on: NCI-H460 lung
[31] = tested on: NCI-H522 lung
[32] = tested on: NCI/ADR-RES ovarian
[33] = tested on: OVCAR-3 ovarian
[34] = tested on: OVCAR-4 ovarian
[35] = tested on: OVCAR-5 ovarian
[36] = tested on: OVCAR-8 ovarian
[37] = tested on: PC-3 prostate
[38] = tested on: RPMI-8226 leukemia
[39] = tested on: SF-268 CNS
[40] = tested on: SF-539 CNS
[41] = tested on: SK-MEL-28 melanoma
[42] = tested on: SK-MEL-5 melanoma
[43] = tested on: SK-OV-3 ovarian
[44] = tested on: SN12C renal
[45] = tested on: SNB-75 CNS
[46] = tested on: SR leukemia
[47] = tested on: SW-620 colon
[48] = tested on: TK-10 renal
[49] = tested on: U251 CNS
[50] = tested on: UACC-257 melanoma
[51] = tested on: UACC-62 melanoma
[52] = tested on: UO-31 renal
[53] = tested on: SF-295 CNS
[54] = tested on: T-47D breast
[55] = tested on: SK-MEL-2 melanoma
[56] = tested on: SNB-19 CNS

Question: Which results are given for `COc1ccc(/C=C2\CCCc3ccccc3C2=O)cc1`?
Answer: TGI [1]: 12.2 µM; TGI [2]: > 54.4 µM; TGI [3]: > 100 µM; TGI [4]: 17.3 µM; TGI [5]: > 66.7 µM; TGI [6]: 24.8 µM; TGI [7]: 0.557 µM; TGI [8]: 1.74 µM; TGI [9]: > 100 µM; TGI [10]: 28.2 µM; TGI [11]: 20.5 µM; TGI [12]: > 33.1 µM; TGI [13]: 9.55 µM; TGI [14]: 76.7 µM; TGI [15]: 88.1 µM; TGI [16]: 37.1 µM; TGI [17]: 14.6 µM; TGI [18]: > 100 µM; TGI [19]: > 100 µM; TGI [20]: 17.6 µM; TGI [21]: 17.4 µM; TGI [22]: 22.2 µM; TGI [23]: > 100 µM; TGI [24]: 99.2 µM; TGI [25]: 42.1 µM; TGI [26]: 53.1 µM; TGI [27]: 35.3 µM; TGI [28]: 2.98 µM; TGI [29]: 7.76 µM; TGI [30]: > 100 µM; TGI [31]: 1.71 µM; TGI [32]: > 100 µM; TGI [33]: 0.422 µM; TGI [34]: > 100 µM; TGI [35]: > 100 µM; TGI [36]: > 44.5 µM; TGI [37]: > 100 µM; TGI [38]: 21.5 µM; TGI [39]: 5.53 µM; TGI [40]: 5.11 µM; TGI [41]: > 100 µM; TGI [42]: 16 µM; TGI [43]: > 60.6 µM; TGI [44]: 16.9 µM; TGI [45]: > 82.3 µM; TGI [46]: > 32 µM; TGI [47]: > 100 µM; TGI [48]: > 96.6 µM; TGI [49]: 35.1 µM; TGI [50]: 37.8 µM; TGI [51]: 26 µM; TGI [52]: > 100 µM

Question: With `CN(C)c1ccc(/C=c2/c3ccccc3n3c2cc(/C=C/c2ccccc2)[n+]3C)cc1` as the molecule, how does the TGI [3] read?
Answer: 1.22 µM

Question: What about the TGI [5] of the same molecule?
Answer: 51.2 µM

Question: And the TGI [6]?
Answer: 0.0821 µM

Question: What about the TGI [7] of the same molecule?
Answer: 0.315 µM

Question: And the TGI [8]?
Answer: 1.37 µM

Question: What about the TGI [10] of the same molecule?
Answer: 1.08 µM

Question: What about the TGI [12] of the same molecule?
Answer: 3.49 µM

Question: And the TGI [14]?
Answer: 1.16 µM

Question: And the TGI [19]?
Answer: > 100 µM

Question: And the TGI [24]?
Answer: 0.591 µM

Question: And the TGI [32]?
Answer: > 50.6 µM

Question: What about the TGI [33] of the same molecule?
Answer: 0.795 µM

Question: What about the TGI [34] of the same molecule?
Answer: 1.86 µM

Question: And the TGI [53]?
Answer: 0.944 µM

Question: And the TGI [40]?
Answer: 0.132 µM

Question: What about the TGI [42] of the same molecule?
Answer: 0.272 µM

Question: What about the TGI [43] of the same molecule?
Answer: 1.14 µM

Question: And the TGI [54]?
Answer: 0.123 µM

Question: What about the TGI [48] of the same molecule?
Answer: 3.77 µM

Question: With `C=CC1C(CC2OC(CO)C(O)C(O)C2O)OC=C2C(=O)OCCC21O` (configuration not stated) as the molecule, how does the GI50 [1] read?
Answer: 2.67 µM

Question: What about the TGI [1] of the same molecule?
Answer: 17.5 µM

Question: And the GI50 [2]?
Answer: 18.5 µM

Question: And the TGI [2]?
Answer: 48.9 µM

Question: And the GI50 [3]?
Answer: 29.8 µM

Question: And the TGI [3]?
Answer: > 100 µM

Question: What about the GI50 [5] of the same molecule?
Answer: 30.6 µM

Question: And the TGI [5]?
Answer: 78.7 µM

Question: And the GI50 [6]?
Answer: 5.32 µM

Question: What about the TGI [6] of the same molecule?
Answer: 28.9 µM

Question: And the GI50 [7]?
Answer: 19.9 µM

Question: What about the TGI [7] of the same molecule?
Answer: 45.2 µM

Question: And the GI50 [8]?
Answer: 13.8 µM

Question: And the TGI [8]?
Answer: 62.6 µM

Question: And the GI50 [9]?
Answer: 39.8 µM

Question: And the TGI [9]?
Answer: > 100 µM

Question: And the GI50 [10]?
Answer: 15.3 µM

Question: And the TGI [10]?
Answer: 34.4 µM

Question: What about the GI50 [11] of the same molecule?
Answer: 16.2 µM

Question: And the TGI [11]?
Answer: 32.1 µM

Question: What about the GI50 [12] of the same molecule?
Answer: 19.5 µM

Question: And the TGI [12]?
Answer: 49.9 µM

Question: What about the GI50 [14] of the same molecule?
Answer: 13.4 µM

Question: What about the TGI [14] of the same molecule?
Answer: 35.5 µM

Question: And the GI50 [15]?
Answer: 1.68 µM

Question: And the TGI [15]?
Answer: 9.35 µM

Question: What about the GI50 [16] of the same molecule?
Answer: 34.6 µM

Question: And the TGI [16]?
Answer: > 100 µM

Question: And the GI50 [17]?
Answer: 2.23 µM

Question: What about the TGI [17] of the same molecule?
Answer: 8.02 µM

Question: What about the GI50 [18] of the same molecule?
Answer: 8.36 µM

Question: What about the TGI [18] of the same molecule?
Answer: 53.1 µM

Question: And the GI50 [19]?
Answer: 6.6 µM

Question: And the TGI [19]?
Answer: > 100 µM

Question: What about the GI50 [20] of the same molecule?
Answer: 3.05 µM

Question: And the TGI [20]?
Answer: 30.1 µM

Question: And the GI50 [21]?
Answer: 8.37 µM

Question: What about the TGI [21] of the same molecule?
Answer: 23.4 µM

Question: And the GI50 [22]?
Answer: 22.3 µM

Question: And the TGI [22]?
Answer: 65.7 µM

Question: And the GI50 [23]?
Answer: 17.8 µM

Question: What about the TGI [23] of the same molecule?
Answer: 51 µM

Question: What about the GI50 [24] of the same molecule?
Answer: 21.6 µM

Question: And the TGI [24]?
Answer: > 100 µM

Question: And the GI50 [25]?
Answer: 40.9 µM

Question: And the TGI [25]?
Answer: 99.6 µM

Question: And the GI50 [26]?
Answer: 13.7 µM

Question: And the TGI [26]?
Answer: 44.5 µM

Question: And the GI50 [27]?
Answer: 3.78 µM

Question: And the TGI [27]?
Answer: 30.5 µM

Question: What about the GI50 [28] of the same molecule?
Answer: 20.9 µM

Question: And the TGI [28]?
Answer: 76.5 µM

Question: And the GI50 [29]?
Answer: 24.9 µM

Question: What about the TGI [29] of the same molecule?
Answer: 61.9 µM

Question: What about the GI50 [30] of the same molecule?
Answer: 28.4 µM

Question: What about the TGI [30] of the same molecule?
Answer: > 100 µM

Question: What about the GI50 [31] of the same molecule?
Answer: 4.72 µM

Question: And the TGI [31]?
Answer: 34.5 µM

Question: And the GI50 [32]?
Answer: 24 µM

Question: What about the TGI [32] of the same molecule?
Answer: > 100 µM

Question: And the GI50 [33]?
Answer: 12.4 µM

Question: What about the TGI [33] of the same molecule?
Answer: 27.6 µM

Question: What about the GI50 [34] of the same molecule?
Answer: 5.82 µM

Question: What about the TGI [34] of the same molecule?
Answer: 30.2 µM

Question: What about the GI50 [35] of the same molecule?
Answer: 14.4 µM

Question: What about the TGI [35] of the same molecule?
Answer: 44.5 µM

Question: And the GI50 [36]?
Answer: 16.7 µM

Question: What about the TGI [36] of the same molecule?
Answer: 62.4 µM

Question: And the GI50 [37]?
Answer: 11 µM

Question: And the TGI [37]?
Answer: 27.9 µM

Question: And the GI50 [38]?
Answer: 2.32 µM

Question: What about the TGI [38] of the same molecule?
Answer: 8.43 µM

Question: What about the GI50 [39] of the same molecule?
Answer: 24.3 µM

Question: And the TGI [39]?
Answer: 89 µM

Question: What about the GI50 [53] of the same molecule?
Answer: 23.5 µM

Question: What about the TGI [53] of the same molecule?
Answer: 62.5 µM

Question: What about the GI50 [55] of the same molecule?
Answer: 22.4 µM

Question: What about the TGI [55] of the same molecule?
Answer: 71.4 µM

Question: And the GI50 [41]?
Answer: 0.116 µM

Question: And the TGI [41]?
Answer: 19.2 µM

Question: And the GI50 [42]?
Answer: 15.7 µM

Question: What about the TGI [42] of the same molecule?
Answer: 37.5 µM

Question: What about the GI50 [43] of the same molecule?
Answer: 46.6 µM

Question: And the TGI [43]?
Answer: > 100 µM

Question: What about the GI50 [44] of the same molecule?
Answer: 20.8 µM

Question: What about the TGI [44] of the same molecule?
Answer: 75.6 µM

Question: And the GI50 [56]?
Answer: 13.8 µM

Question: And the TGI [56]?
Answer: 37.1 µM

Question: What about the GI50 [45] of the same molecule?
Answer: 1.84 µM

Question: What about the TGI [45] of the same molecule?
Answer: 18.6 µM

Question: What about the GI50 [46] of the same molecule?
Answer: 3.32 µM

Question: And the TGI [46]?
Answer: 26.5 µM

Question: And the GI50 [47]?
Answer: 5.38 µM

Question: What about the TGI [47] of the same molecule?
Answer: 29.9 µM

Question: What about the GI50 [54] of the same molecule?
Answer: 32 µM

Question: What about the TGI [54] of the same molecule?
Answer: > 100 µM

Question: What about the GI50 [48] of the same molecule?
Answer: 26 µM

Question: And the TGI [48]?
Answer: 90.3 µM

Question: What about the GI50 [49] of the same molecule?
Answer: 13.2 µM

Question: And the TGI [49]?
Answer: 28 µM

Question: And the GI50 [50]?
Answer: 20.4 µM

Question: And the TGI [50]?
Answer: 50.9 µM

Question: What about the GI50 [51] of the same molecule?
Answer: 21.2 µM

Question: What about the TGI [51] of the same molecule?
Answer: 53.3 µM

Question: And the GI50 [52]?
Answer: 16.4 µM

Question: What about the TGI [52] of the same molecule?
Answer: > 100 µM
